Assay results from PubChem BioAssay (NCI).
Several values for one entry are separate records, joined by “and”; a condition that tells them apart may be missing. Equal values may be shown once.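 Dose response: 5 concentrations. Exposure: 48 h. Format: 96-well plates. Endpoint: linear interpolation; highest concentration if not reached. Abbreviation: GI50, concentration required for 50% inhibition of growth. At the TGI there is no net growth.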

Experiments:
Assay in all cases: NCI tumour cell line growth inhibition, 48 h
OVCAR-8 ovarian = tested on: OVCAR-8 ovarian
T-47D breast = tested on: T-47D breast
MDA-MB-435 = tested on: MDA-MB-435
BT-549 breast = tested on: BT-549 breast
ACHN renal = tested on: ACHN renal
MDA-MB-231 breast = tested on: MDA-MB-231 breast
M14 melanoma = tested on: M14 melanoma
MDA-N = tested on: MDA-N
SR leukemia = tested on: SR leukemia
P388 leukemia = tested on: P388 leukemia
KM20L2 colon = tested on: KM20L2 colon

Row | SMILES | TGI (OVCAR-8 ovarian) [µM] | TGI (T-47D breast) [µM] | TGI (MDA-MB-435) [µM] | TGI (BT-549 breast) [µM] | TGI (ACHN renal) | TGI (MDA-MB-231 breast) [µM] | TGI (M14 melanoma) [µM] | TGI (MDA-N) [µM] | TGI (SR leukemia) [µM] | GI50 (T-47D breast) [µM] | GI50 (MDA-MB-435) [µM] | GI50 (ACHN renal) [µM] | GI50 (MDA-MB-231 breast) [µM] | TGI (P388 leukemia) [µM] | GI50 (SR leukemia) | TGI (KM20L2 colon) [µM] | GI50 (OVCAR-8 ovarian) [µM] | GI50 (BT-549 breast) [µM] | GI50 (M14 melanoma) [µM]
1 | COc1cc(C2S/C(=C/c3ccccc3)C(=O)N2c2ccc(NC(C)=O)cc2)cc(OC)c1OC (configuration not stated) | 76.9 | 55.1 | 62.4 | 65.4 | 77.8 µM | 41.3 | 56.9 | 63.4 | > 100 | – | – | – | – | – | – | – | – | – | –
2 | COc1ccc(-c2csc(=Nc3ccccc3)n2CCCN(C)C)cc1 | 75.6 | – | 65.3 | 37.3 | 48.6 µM | > 100 | 24.4 | > 100 | 67.1 | – | – | – | – | – | – | – | – | – | –
3 | COc1cc([C@@H]2c3cc4c(c(O)c3C[C@H]3COC(=O)[C@@H]32)OCO4)cc(OC)c1OC | – | > 231 | 0.000802 | – | 121 µM and > 100 µM | > 100 | > 122 | – | – | 0.324 | 0.000192 | 1.43 | 0.392 | 0.551 | 1.46 µM and 0.812 µM | 0.522 | – | – | –
4 | Cc1nc2c(c(=O)[nH]1)S/C(=C(/C#N)c1nc3ccccc3[nH]1)N2c1ccccc1 | > 100 | – | – | – | > 100 µM | – | > 100 | – | > 100 | – | – | – | – | – | – | > 100 | – | – | –
5 | C=C(C)C(=O)O[C@H]1CC2=C[C@@H](C[C@@]3(C)O[C@@H]3[C@H]3OC(=O)C(=C)[C@@H]31)OC2=O | 0.707 | – | – | – | – | – | – | – | – | – | – | – | – | 15.6 | – | 10.5 | 0.406 | – | –
6 | NC(CSCc1ccc(I)cc1)C(=O)O (configuration not stated) | > 100 | > 100 | > 100 | > 100 | > 100 µM | > 100 | > 100 | > 100 | – | – | – | – | – | – | – | – | – | – | –
7 | CC(=O)N1N=C(c2ccc3ccccc3c2O)CC1c1cccs1 (configuration not stated) | > 100 | > 100 | > 100 | 83.9 | > 100 µM | > 100 | 39.1 | > 100 | 14.3 | – | – | – | – | – | – | – | – | – | –
8 | CCOC1=NC(C(F)(F)F)(C(F)(F)F)N=C(N2CCOCC2)O1 | > 100 | > 100 | > 100 | > 100 | > 100 µM | > 100 | > 100 | > 100 | > 100 | – | – | – | – | – | – | – | – | – | –
9 | COc1nc2ccc(COc3ccc(C(=O)NC(CCC(=O)O)C(=O)O)cc3)cc2nc1OC (configuration not stated) | – | > 10 | > 10 | – | > 10 µM | > 10 | > 10 | > 10 | > 10 | – | – | – | – | – | – | – | – | – | –
10 | O=C1C(Cl)N(c2cccc(Cl)c2)C1c1c[nH]c2ccccc12 (configuration not stated) | > 100 | – | – | – | – | – | > 100 | – | > 100 | – | – | – | – | – | – | > 100 | – | – | –
11 | c1ccc(N2N=C(c3cccc(Nc4ccncc4)c3)CC2c2ccc3c(c2)OCO3)cc1 (configuration not stated) | – | 5.12 | 1.47 | 4.06 | 3.21 µM | – | 3.48 | – | 2.89 | 2.1 | 0.383 | 1.64 | – | – | 0.955 µM | – | – | 1.83 | 1.63
12 | NC(=S)N/N=C/c1nccc2ccccc12 | > 100 | – | – | – | 1.01 µM | – | – | – | 11.5 | – | – | – | – | – | – | > 100 | – | – | –
13 | CC[C@@H]1ON(C)[C@H]2CN(C)C(=O)[C@@H]12 | > 100 | > 100 | > 100 | – | > 100 µM | > 100 | > 100 | > 100 | > 100 | – | – | – | – | – | – | – | – | – | –
14 | COc1ccc2c(c1O)-c1cc(O)cc3c1[C@@H](C2)N(C)CC3 | 8.27 | – | – | – | – | – | – | – | – | – | – | – | – | 106 | – | 31.2 | – | – | –
